IC50 data for 18 compounds are collected here from the Kinase Knowledgebase extract (Sharma et al. 2016).

A value given as a limit tells only on which side of the number the result lay.

For one experiment, the target named is PIK3CG (human) (UniProt P48736). In words: Assessment of PIK3CG Kinase Activity.
The next experiment addresses PIK3CD (Human) (UniProt O00329). As to the kind of experiment: Assessment of PIK3CD Kinase Activity.
For another experiment, the target named is PIK3CB (Human) (UniProt P42338). In words: Assessment of PIK3CB Kinase Activity.
Another experiment concerns the target PIK3CA (human) (UniProt P42336). In words: Assessment of PIK3CA Kinase Activity.

Sequence of PIK3CG (human) (P48736 whole entry, looked up): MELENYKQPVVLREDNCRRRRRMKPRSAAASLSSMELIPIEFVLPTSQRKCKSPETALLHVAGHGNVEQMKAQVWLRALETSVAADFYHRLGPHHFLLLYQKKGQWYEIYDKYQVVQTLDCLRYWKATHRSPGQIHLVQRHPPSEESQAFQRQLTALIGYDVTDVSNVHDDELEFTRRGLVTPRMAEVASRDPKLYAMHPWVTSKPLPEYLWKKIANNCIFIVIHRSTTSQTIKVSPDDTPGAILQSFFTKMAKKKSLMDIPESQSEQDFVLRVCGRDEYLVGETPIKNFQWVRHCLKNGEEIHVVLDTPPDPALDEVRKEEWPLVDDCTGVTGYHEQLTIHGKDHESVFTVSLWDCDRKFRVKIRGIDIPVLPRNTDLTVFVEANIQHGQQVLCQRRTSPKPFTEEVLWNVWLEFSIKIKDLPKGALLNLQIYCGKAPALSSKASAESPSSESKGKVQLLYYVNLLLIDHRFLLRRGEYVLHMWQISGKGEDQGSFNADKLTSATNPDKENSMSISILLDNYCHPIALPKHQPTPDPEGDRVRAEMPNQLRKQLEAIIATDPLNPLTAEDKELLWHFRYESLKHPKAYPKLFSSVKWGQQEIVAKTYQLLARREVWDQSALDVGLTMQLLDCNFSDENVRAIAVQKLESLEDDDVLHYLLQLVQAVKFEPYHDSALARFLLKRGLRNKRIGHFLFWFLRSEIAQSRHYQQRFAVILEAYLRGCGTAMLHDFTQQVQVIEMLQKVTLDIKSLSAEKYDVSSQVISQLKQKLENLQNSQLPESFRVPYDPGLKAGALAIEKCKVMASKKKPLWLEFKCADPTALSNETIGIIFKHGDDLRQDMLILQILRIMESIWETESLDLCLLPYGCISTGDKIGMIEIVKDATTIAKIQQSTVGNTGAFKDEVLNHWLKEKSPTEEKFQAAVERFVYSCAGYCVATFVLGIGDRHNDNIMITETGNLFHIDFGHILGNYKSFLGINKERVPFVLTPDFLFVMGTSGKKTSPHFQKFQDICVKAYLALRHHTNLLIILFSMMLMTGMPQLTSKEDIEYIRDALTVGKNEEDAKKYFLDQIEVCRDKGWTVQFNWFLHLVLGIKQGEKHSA
Sequence of PIK3CA (human) (P42336 whole entry, looked up): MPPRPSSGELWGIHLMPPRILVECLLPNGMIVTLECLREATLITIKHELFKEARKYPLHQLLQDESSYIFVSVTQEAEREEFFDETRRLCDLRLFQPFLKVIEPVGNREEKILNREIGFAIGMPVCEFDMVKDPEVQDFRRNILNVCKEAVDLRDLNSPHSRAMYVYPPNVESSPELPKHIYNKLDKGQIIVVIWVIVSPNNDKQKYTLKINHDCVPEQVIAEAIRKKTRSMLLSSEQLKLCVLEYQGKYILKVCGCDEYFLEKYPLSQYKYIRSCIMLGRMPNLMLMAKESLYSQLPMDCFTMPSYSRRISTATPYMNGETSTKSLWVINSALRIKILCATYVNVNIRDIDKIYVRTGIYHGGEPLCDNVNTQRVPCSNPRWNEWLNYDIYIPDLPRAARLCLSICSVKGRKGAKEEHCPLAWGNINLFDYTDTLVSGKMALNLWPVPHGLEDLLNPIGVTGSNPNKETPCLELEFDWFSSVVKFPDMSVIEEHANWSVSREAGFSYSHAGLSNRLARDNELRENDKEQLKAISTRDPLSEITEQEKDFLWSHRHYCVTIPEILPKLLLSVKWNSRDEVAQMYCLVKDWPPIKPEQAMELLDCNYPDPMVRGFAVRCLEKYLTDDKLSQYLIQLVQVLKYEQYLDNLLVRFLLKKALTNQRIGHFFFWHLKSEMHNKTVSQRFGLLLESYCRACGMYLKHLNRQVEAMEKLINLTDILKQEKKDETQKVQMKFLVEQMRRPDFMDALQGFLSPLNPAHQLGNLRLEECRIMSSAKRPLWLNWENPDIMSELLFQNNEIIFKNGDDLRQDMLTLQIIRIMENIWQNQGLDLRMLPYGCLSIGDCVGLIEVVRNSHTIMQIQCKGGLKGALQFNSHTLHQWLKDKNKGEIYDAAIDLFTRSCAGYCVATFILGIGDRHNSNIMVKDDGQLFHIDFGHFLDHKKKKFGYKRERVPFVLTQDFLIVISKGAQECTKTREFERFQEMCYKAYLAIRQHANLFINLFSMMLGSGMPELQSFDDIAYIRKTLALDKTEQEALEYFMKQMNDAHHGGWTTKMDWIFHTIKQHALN
Sequence of PIK3CB (Human) (P42338 whole entry, looked up): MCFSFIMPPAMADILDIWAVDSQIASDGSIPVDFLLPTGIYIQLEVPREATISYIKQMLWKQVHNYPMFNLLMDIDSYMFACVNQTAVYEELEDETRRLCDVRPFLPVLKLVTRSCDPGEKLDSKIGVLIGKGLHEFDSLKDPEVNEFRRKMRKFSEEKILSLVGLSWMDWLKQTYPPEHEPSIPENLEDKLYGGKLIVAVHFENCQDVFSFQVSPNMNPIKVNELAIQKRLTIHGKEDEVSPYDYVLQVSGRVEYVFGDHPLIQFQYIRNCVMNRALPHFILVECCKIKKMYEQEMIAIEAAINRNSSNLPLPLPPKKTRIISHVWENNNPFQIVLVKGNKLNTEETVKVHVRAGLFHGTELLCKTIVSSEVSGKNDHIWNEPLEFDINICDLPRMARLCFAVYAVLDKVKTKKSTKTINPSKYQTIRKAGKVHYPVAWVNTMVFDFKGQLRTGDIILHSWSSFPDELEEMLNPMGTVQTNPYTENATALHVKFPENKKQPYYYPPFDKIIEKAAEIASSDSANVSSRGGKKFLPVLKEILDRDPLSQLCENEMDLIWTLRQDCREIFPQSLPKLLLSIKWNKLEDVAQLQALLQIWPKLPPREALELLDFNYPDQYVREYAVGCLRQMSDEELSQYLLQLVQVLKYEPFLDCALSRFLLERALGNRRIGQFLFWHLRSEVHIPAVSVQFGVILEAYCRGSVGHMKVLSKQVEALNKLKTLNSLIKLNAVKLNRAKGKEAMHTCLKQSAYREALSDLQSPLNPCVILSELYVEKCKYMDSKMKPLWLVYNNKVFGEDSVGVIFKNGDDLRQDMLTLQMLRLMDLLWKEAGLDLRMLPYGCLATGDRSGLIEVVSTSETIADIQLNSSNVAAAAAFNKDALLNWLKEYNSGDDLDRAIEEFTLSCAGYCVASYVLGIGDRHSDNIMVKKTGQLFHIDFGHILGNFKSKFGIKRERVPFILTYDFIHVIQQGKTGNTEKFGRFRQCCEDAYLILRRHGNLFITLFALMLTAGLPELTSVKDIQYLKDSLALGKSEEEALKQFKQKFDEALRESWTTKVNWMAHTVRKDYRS
Sequence of PIK3CD (Human) (O00329 whole entry, looked up): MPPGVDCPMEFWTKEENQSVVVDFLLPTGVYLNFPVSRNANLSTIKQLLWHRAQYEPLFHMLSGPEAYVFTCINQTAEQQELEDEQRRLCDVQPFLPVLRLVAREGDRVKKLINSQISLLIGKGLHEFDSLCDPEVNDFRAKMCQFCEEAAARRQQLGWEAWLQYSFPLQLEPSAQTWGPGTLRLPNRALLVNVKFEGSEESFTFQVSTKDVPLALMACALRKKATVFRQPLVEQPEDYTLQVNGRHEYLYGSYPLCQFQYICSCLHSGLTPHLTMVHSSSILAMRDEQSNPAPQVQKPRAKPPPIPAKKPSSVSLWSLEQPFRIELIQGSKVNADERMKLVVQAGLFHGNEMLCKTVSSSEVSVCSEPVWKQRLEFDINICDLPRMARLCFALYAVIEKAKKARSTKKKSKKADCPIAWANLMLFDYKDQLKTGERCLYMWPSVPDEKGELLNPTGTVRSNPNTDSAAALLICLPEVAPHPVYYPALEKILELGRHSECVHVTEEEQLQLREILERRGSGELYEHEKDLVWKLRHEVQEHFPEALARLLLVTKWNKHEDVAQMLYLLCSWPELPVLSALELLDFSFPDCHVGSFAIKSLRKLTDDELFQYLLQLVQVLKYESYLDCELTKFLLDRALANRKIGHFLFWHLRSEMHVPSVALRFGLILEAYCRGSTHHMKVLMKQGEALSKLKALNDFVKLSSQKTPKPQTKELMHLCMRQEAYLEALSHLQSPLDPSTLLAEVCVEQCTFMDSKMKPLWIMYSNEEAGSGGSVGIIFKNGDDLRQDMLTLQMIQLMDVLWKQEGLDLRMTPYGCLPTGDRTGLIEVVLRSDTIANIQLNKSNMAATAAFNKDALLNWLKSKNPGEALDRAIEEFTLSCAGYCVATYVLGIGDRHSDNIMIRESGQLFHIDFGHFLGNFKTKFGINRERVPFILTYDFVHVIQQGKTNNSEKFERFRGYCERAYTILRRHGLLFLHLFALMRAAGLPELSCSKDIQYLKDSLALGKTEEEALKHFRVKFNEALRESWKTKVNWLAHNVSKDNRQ

For `CS(=O)(=O)c1cncc(-c2ccc3nc(NC(=O)NCC(=O)N4CCOCC4)nn3c2)c1`, the IC50 against PIK3CG (human) is less than 100 nM; on PIK3CD (Human), 100 to 1000 nM.

On to `CN1CCN(C(=O)CNC(=O)Nc2nc3ccc(-c4cncc(S(=O)(=O)NC(C)(C)C)c4)cn3n2)CC1`, for which the half-maximal inhibitory concentration (IC50) on PIK3CB (Human) is 100 to 1000 nM; against PIK3CA (human), 100 to 1000 nM; against PIK3CG (human) it was less than 100 nM; at PIK3CD (Human), less than 100 nM.

As for `CC(C)NS(=O)(=O)c1cncc(-c2ccc3nc(NC(=O)NCC(=O)N4CCCC4)nn3c2)c1`, the IC50 on PIK3CG (human) and against PIK3CD (Human) was less than 100 nM in each case.

Turning to `COCCN1CCN(C(=O)CNC(=O)Nc2nc3ccc(-c4cncc(S(=O)(=O)NC(C)(C)C)c4)cn3n2)CC1`, the IC50 at PIK3CB (Human) is 100 to 1000 nM; on PIK3CA (human), 100 to 1000 nM; against PIK3CG (human) it was less than 100 nM; at PIK3CD (Human) it was less than 100 nM.

With `CC(C)(C)NS(=O)(=O)c1cncc(-c2ccc3nc(NC(=O)NCC(=O)N4CCCCC4)nn3c2)c1`, the figures for the IC50 against PIK3CA (human), at PIK3CG (human) and at PIK3CD (Human) were 100 to 1000 nM, less than 100 nM and less than 100 nM, respectively.

As to `CC(C)(C)NS(=O)(=O)c1cncc(-c2ccc3nc(NC(=O)NCC(=O)N4CCCC4)nn3c2)c1`, the IC50 on PIK3CG (human) and against PIK3CD (Human) was less than 100 nM in each case.

For the compound `CC(C)(C)NS(=O)(=O)c1cncc(-c2cc(F)c3nc(NC(=O)NCC(=O)N4CCOCC4)nn3c2)c1`, the IC50 against PIK3CG (human) and on PIK3CD (Human) was less than 100 nM throughout.

Regarding `CC(C)(C)NS(=O)(=O)c1cncc(-c2ccc3nc(NC(=O)NCCC(=O)N4CCCC4)nn3c2)c1`, the concentration for half-maximal inhibition (IC50) is 100 to 1000 nM against PIK3CB (Human), less than 100 nM against PIK3CG (human) and less than 100 nM against PIK3CD (Human).

With `CC(C)NS(=O)(=O)c1cncc(-c2ccc3nc(NC(=O)NCC(=O)N4CCOCC4)nn3c2)c1`, the IC50 at PIK3CA (human) is 100 to 1000 nM; at PIK3CG (human), less than 100 nM; against PIK3CD (Human), less than 100 nM.

As for `CC(C)(C)NS(=O)(=O)c1cncc(-c2ccc3nc(NC(=O)NCC(=O)N4CCOCC4)nn3c2)c1`, the IC50 at PIK3CB (Human) is 100 to 1000 nM; against PIK3CA (human), 100 to 1000 nM; at PIK3CG (human) it was less than 100 nM; against PIK3CD (Human), less than 100 nM.

With `CC(C)(C)NS(=O)(=O)c1cncc(-c2cc(F)c3nc(NC(=O)NCC(=O)N4CCCC4)nn3c2)c1`, the figures for the IC50 against PIK3CG (human) and at PIK3CD (Human) were less than 100 nM and 100 to 1000 nM, respectively.

As for `CN(C)[C@H]1CCN(C(=O)CNC(=O)Nc2nc3ccc(-c4cncc(S(=O)(=O)NC(C)(C)C)c4)cn3n2)C1`, the IC50 on PIK3CB (Human) is 100 to 1000 nM; against PIK3CA (human), 100 to 1000 nM; against PIK3CG (human) it was less than 100 nM; against PIK3CD (Human) it was less than 100 nM.

On to `CC(C)(C)NS(=O)(=O)c1cncc(-c2ccc3nc(NC(=O)NCC(=O)NC4CC4)nn3c2)c1`, for which the IC50 against PIK3CB (Human) is 100 to 1000 nM; at PIK3CG (human), less than 100 nM; against PIK3CD (Human), 100 to 1000 nM.

For `O=C(NCC(=O)N1CCCC1)Nc1nc2ccc(-c3cncc(C(F)(F)F)c3)cn2n1`, the IC50 on PIK3CB (Human) is more than 10000 nM; on PIK3CG (human) it was less than 100 nM.

For the compound `CN(C(=O)CNC(=O)Nc1nc2ccc(-c3cncc(S(=O)(=O)NC(C)(C)C)c3)cn2n1)C1CC1`, the results for the IC50 on PIK3CA (human), at PIK3CG (human) and at PIK3CD (Human) were 100 to 1000 nM, less than 100 nM and less than 100 nM, respectively.

For `CC(C)(C)NS(=O)(=O)c1cncc(-c2ccc3nc(NC(=O)NCCC(=O)N4CCCCC4)nn3c2)c1`, the IC50 against PIK3CG (human) and on PIK3CD (Human) was less than 100 nM in each case.

Consider `CC(C)(C)NS(=O)(=O)c1cncc(-c2ccc3nc(NC(=O)NCC(=O)N4CCC(N)CC4)nn3c2)c1`, for which the IC50 on PIK3CB (Human) was 100 to 1000 nM; at PIK3CG (human) it was less than 100 nM; on PIK3CD (Human), less than 100 nM.

As for `CC(C)(C)NS(=O)(=O)c1cncc(-c2ccc3nc(NC(=O)NCC(=O)NC4CCNCC4)nn3c2)c1`, the IC50 is 100 to 1000 nM at PIK3CB (Human), less than 100 nM against PIK3CG (human) and 100 to 1000 nM against PIK3CD (Human).
